Data: the supplement of paper PMC12137928
Where a name gives a salt, the structure may show the parent alone.

Test system: HCT116
Details: 72 h
In short: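 Each well of the 1536-well plates received 250 HCT116 cells, which attached over 5 h. Luminescence was measured with CellTiter-Glo, scaled with vehicle as 0% and positive control as -100%, and pattern-corrected. A four-parameter Hill fit yielded IC50 and maximal efficacy.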

Row | IC50 cell viability (ICRF193 0 nM) [µM] | IC50 cell viability (ICRF193 200 nM) [µM] | SMILES
1 | > 45.8 | > 45.8 | CCOC(=O)[C@@H](N)CS [L-Cysteine ethyl ester hydrochloride]
2 | > 45.8 | > 45.8 | COC(=O)[C@@H](N)CS [L-Cysteine methyl ester hydrochloride]
3 | > 45.8 | > 45.8 | N[C@@H](CSSC[C@H](N)C(=O)O)C(=O)O [L-Cystine]
4 | > 45.8 | > 45.8 | CSCC[C@H](N)C(=O)O [L-Methionine]
5 | > 45.8 | > 45.8 | CC(C)(S)[C@H](N)C(=O)O [L-Penicillamine]
6 | > 45.8 | > 45.8 | O=C(O)[C@@H]1CCCN1 [L-Proline]
7 | > 45.8 | > 45.8 | C[C@@H](O)[C@H](N)C(=O)O [L-Threonine]
8 | > 45.8 | > 45.8 | N[C@@H](Cc1cc(I)c(Oc2cc(I)c(O)c(I)c2)c(I)c1)C(=O)O [L-Thyroxine]
9 | > 45.8 | > 45.8 | CC(C)[C@H](N)C(=O)O [L-Valine]
10 | > 45.8 | > 45.8 | Nc1nc(=O)c2c([nH]1)NCC(CNc1ccc(C(=O)N[C@@H](CCC(=O)O)C(=O)O)cc1)N2C=O (some centres not stated) [LEUCOVORIN CALCIUM]
11 | > 45.8 | > 45.8 | C[C@@H]1NC(=O)[C@@H]2CCCN2C(=O)[C@H](CC(N)=O)NC(=O)[C@@H]2CSSC[C@H](N)C(=O)N[C@H]3CSSC[C@H](NC1=O)C(=O)N[C@@H]([C@@H](C)O)C(=O)NCC(=O)N[C@H](C(=O)N[C@@H](Cc1ccc(O)cc1)C(=O)O)CSSC[C@H](NC(=O)[C@H](Cc1ccc(O)cc1)NC(=O)[C@H](CCC(=O)O)NC3=O)C(=O)N2 [LINACLOTIDE (1 mg/ml)]
12 | > 45.8 | > 45.8 | O.O.O.O.O=C([O-])CC(O)(CC(=O)[O-])C(=O)[O-].[Li+].[Li+].[Li+] [LITHIUM CITRATE]
13 | > 45.8 | > 45.8 | CN1[C@@H](CC(=O)c2ccccc2)CCC[C@H]1C[C@H](O)c1ccccc1 [LOBELINE HYDROCHLORIDE]
14 | > 45.8 | > 45.8 | CC(CCc1ccccc1)NCC(O)c1ccc(O)c(C(N)=O)c1 (configuration not stated) [Labetalol HCl]
15 | > 45.8 | > 45.8 | OC[C@@H](O)[C@@H](O[C@@H]1O[C@H](CO)[C@H](O)[C@H](O)[C@H]1O)[C@H](O)[C@@H](O)CO [Lactitol]
16 | > 45.8 | > 45.8 | O=C(C[S+]([O-])Cc1ccco1)NC/C=C\COc1cc(CN2CCCCC2)ccn1 (configuration not stated) [Lafutidine]
17 | > 45.8 | > 45.8 | Nc1ccn([C@@H]2CS[C@H](CO)O2)c(=O)n1 [Lamivudine]
18 | > 45.8 | > 45.8 | Nc1nnc(-c2cccc(Cl)c2Cl)c(N)n1 [Lamotrigine]
19 | > 45.8 | > 45.8 | CC1(C)OC[C@@H](COC(=O)CCc2ccc(OC[C@@H](O)CNCCNC(=O)N3CCOCC3)cc2)O1 [Landiolol hydrochloride]

Row | IC50 cell viability (ICRF193 0 nM) [µM] | IC50 cell viability (ICRF193 200 nM) [µM] | SMILES
20 | > 45.8 | > 45.8 | N#C/C(=C1/SCC(c2ccccc2Cl)S1)n1ccnc1 (configuration not stated) [Lanoconazole]
21 | > 45.8 | > 45.8 | C[C@H](CN1CCCC1)C(=O)c1ccc(C(F)(F)F)cc1 [Lanperisone hydrochloride]
22 | > 45.8 | > 45.8 | CCN(C(=O)c1c(O)c2c(Cl)cccc2n(C)c1=O)c1ccccc1 [Laquinimod]
23 | > 45.8 | > 45.8 | CC(C)OC(=O)CCC/C=C\C[C@@H]1[C@@H](CC[C@@H](O)CCc2ccccc2)[C@H](O)C[C@@H]1O [Latanoprost]
24 | > 45.8 | > 45.8 | CCCCCCCCCCCCSCCOCCOCCOCCOCCOCCOCCOCCOCCOCCO [Laureth 10s]
25 | > 45.8 | > 45.8 | NCCNC(=O)c1ccc(Cl)cn1 [Lazabemide hydrochloride]
26 | > 45.8 | > 45.8 | COC(=O)N[C@H](C(=O)N1CC2(CC2)C[C@H]1c1nc(-c2ccc3c(c2)C(F)(F)c2cc(-c4ccc5[nH]c([C@@H]6[C@H]7CC[C@H](C7)N6C(=O)[C@@H](NC(=O)OC)C(C)C)nc5c4)ccc2-3)c[nH]1)C(C)C [Ledipasvir (GS 5885)]
27 | > 45.8 | > 45.8 | Nc1cccc2c1CN(C1CCC(=O)NC1=O)C2=O (configuration not stated) [Lenalidomide]
28 | > 45.8 | > 45.8 | Cc1oc(=O)oc1COC(=O)[C@@H]1N2C(=O)[C@@H](NC(=O)[C@H](N)c3ccccc3)[C@H]2SC1(C)C [Lenampicillin hydrochloride]
29 | > 45.8 | > 45.8 | O=C(CCCN1CCC(C(=O)c2ccc(F)cc2)CC1)c1ccc(F)cc1 [Lenperone Hydrochloride]
30 | > 45.8 | > 45.8 | COc1cc2nccc(Oc3ccc(NC(=O)NC4CC4)c(Cl)c3)c2cc1C(N)=O [Lenvatinib]
31 | > 45.8 | > 45.8 | O=C(O)CSc1nnc(Br)n1-c1ccc(C2CC2)c2ccccc12 [Lesinurad (sodium)]
32 | > 45.8 | > 45.8 | COc1cccc(N2CCN(C3=Nc4c(F)cccc4[C@H](CC(=O)O)N3c3cc(C(F)(F)F)ccc3OC)CC2)c1 [Letermovir]
33 | > 45.8 | > 45.8 | N#Cc1ccc(C(c2ccc(C#N)cc2)n2cncn2)cc1 [Letrozole]
34 | > 45.8 | > 45.8 | c1ccc([C@H]2CN3CCSC3=N2)cc1 [Levamisole hydrochloride]
35 | > 45.8 | > 45.8 | CC(C)(C)NC[C@H](O)COc1cccc2c1CCCC2=O [Levobunolol hydrochloride]
36 | > 45.8 | > 45.8 | CCCCN1CCCC[C@H]1C(=O)Nc1c(C)cccc1C [Levobupivacaine hydrochloride]
37 | > 45.8 | > 45.8 | N[C@@H](Cc1ccc(O)c(O)c1)C(=O)O [Levodopa]
38 | > 45.8 | > 45.8 | C[C@H]1COc2c(N3CCN(C)CC3)c(F)cc3c(=O)c(C(=O)O)cn1c23 [Levofloxacin]

Row | IC50 cell viability (ICRF193 0 nM) [µM] | IC50 cell viability (ICRF193 200 nM) [µM] | SMILES
39 | > 45.8 | > 45.8 | CN1c2c([nH]c(N)nc2=O)NC[C@@H]1CNc1ccc(C(=O)N[C@@H](CCC(=O)O)C(=O)O)cc1 [Levomefolate calcium]
40 | > 45.8 | > 45.8 | CCN1CCC[C@H]1CNC(=O)c1cc(S(N)(=O)=O)ccc1OC [Levosulpiride]
41 | > 45.8 | > 45.8 | CNC(=O)c1cnn(-c2nc(N)c3ncn([C@@H]4O[C@H](CO)[C@@H](O)[C@H]4O)c3n2)c1 [Lexiscan]
42 | > 45.8 | > 45.8 | Clc1cccc(C(c2ccc3[nH]cnc3c2)n2ccnc2)c1 (configuration not stated) [Liarozole]
43 | > 45.8 | > 45.8 | CCN(CC)CC(=O)Nc1c(C)cccc1C [Lidocaine]
44 | > 45.8 | > 45.8 | CC1(C)O[C@H]2CC(=O)OC[C@]23[C@H]2CC[C@@]4(C)[C@H](c5ccoc5)OC(=O)[C@H]5O[C@]54[C@]2(C)C(=O)C[C@@H]13 [Limoni]
45 | > 45.8 | > 45.8 | CC#CCn1c(N2CCC[C@@H](N)C2)nc2c1c(=O)n(Cc1nc(C)c3ccccc3n1)c(=O)n2C [Linagliptin]
46 | > 45.8 | > 45.8 | CCC[C@@H]1C[C@@H](C(=O)N[C@@H]([C@H]2O[C@H](SC)[C@H](O)[C@@H](O)[C@H]2O)[C@@H](C)O)N(C)C1 [Lincomycin hydrochloride]
47 | > 45.8 | > 45.8 | CC(=O)NC[C@H]1CN(c2ccc(N3CCOCC3)c(F)c2)C(=O)O1 [Linezolid]
48 | > 45.8 | > 45.8 | CC/C=C\C/C=C\C/C=C\CCCCCCCC(=O)O [Linolenic acid]
49 | > 45.8 | > 45.8 | N[C@@H](Cc1cc(I)c(Oc2ccc(O)c(I)c2)c(I)c1)C(=O)O [Liothyronine Sodium]
50 | > 45.8 | > 45.8 | COc1cccc(N(C)C(=S)Oc2ccc3c(c2)CCCC3)n1 [Liranaftate]
51 | > 45.8 | > 45.8 | NCCCC[C@H](N[C@@H](CCc1ccccc1)C(=O)O)C(=O)N1CCC[C@H]1C(=O)O [Lisinopril dihydrate]
52 | > 45.8 | > 45.8 | O=C(O)c1ccccc1Nc1cc(Cl)ccc1C(=O)O [Lobenzarit sodium]
53 | > 45.8 | > 45.8 | N#Cc1cc(NC(=O)C(=O)O)c(Cl)c(NC(=O)C(=O)O)c1 [Lodoxamide]
54 | > 45.8 | > 45.8 | CN(CCCN1c2ccccc2CCc2ccccc21)CC(=O)c1ccc(Cl)cc1 [Lofepramine hydrochloride]
55 | > 45.8 | > 45.8 | CC(Oc1c(Cl)cccc1Cl)C1=NCCN1 (configuration not stated) [Lofexidine]
56 | > 45.8 | > 45.8 | CCn1cc(C(=O)O)c(=O)c2cc(F)c(N3CCNC(C)C3)c(F)c21 (configuration not stated) [Lomefloxacin hydrochloride]

Row | SMILES | IC50 cell viability (ICRF193 0 nM) [µM] | IC50 cell viability (ICRF193 200 nM) [µM]
57 | Cl[C@H]1[C@H](Cl)[C@@H](Cl)[C@@H](Cl)[C@H](Cl)[C@H]1Cl [LINDANE] | > 45.8 | > 45.8
58 | CC[C@@H](C(N)=O)N1CCCC1=O [Levetiracetam] | > 45.8 | > 45.8
59 | C[C@@H]1CN([C@H]2CC[C@](C#N)(c3ccc(F)cc3)CC2)CC[C@]1(C(=O)O)c1ccccc1 [Levocabastine hydrochloride] | > 45.8 | > 45.8
60 | C[C@H](N)[C@H](O)c1ccc(O)c(O)c1 [Levonordefrin] | > 45.8 | > 45.8
61 | CCC(=O)O[C@@](Cc1ccccc1)(c1ccccc1)[C@@H](C)CN(C)C [Levopropoxyphene napsylate] | > 45.8 | > 45.8
